# Results from patent publication US12486218B2, “Compounds advantageous in the treatment of central nervous system diseases and disorders” (AurimMed Pharma, Inc., priority 2008, dated 2025).
# Like-named read-outs stand apart in the source and are kept apart here.
# How the values were obtained:
# mice [1] = test: 6 Hz (minimal clonic seizure) model, mice i.p.; format: in vivo; conditions: for activity in the 6 Hz (minimal clonic seizure) model: mice; for 6 Hz (32 mA), fraction of animals: mice i.p.
# mice [2] = test: Subcutaneous Metrazol Seizure threshold (s.c. MET) test, mice i.p.; format: in vivo; conditions: for activity in the s.c. MET test: mice, at 300 mg/kg; for s.c. MET, fraction of animals: mice i.p.
# mice [3] = test: Maximal Electroshock Seizure (MES) test, mice i.p.; format: in vivo; conditions: for MES, fraction of animals: mice i.p.; for activity in the MES test: mice
# SMN2 promoter = SMN2 promoter β-lactamase reporter assay in NSC34 motor neuron-like cells; format: cell-based; conditions: for Promoter (SMN2 promoter test, summary YES/NO): Table 13 summary; for SMN2 promoter activity: treatment for 19 hours at a concentration of 1 μM
# Protocol: FIG. 30 illustrates a screen for SMN2 expression of a number of compounds described herein.
# SMN2 promoter activity was measured using NSC34 motor neuron-like cells stably transfected with a β-lactamase (BLA) reporter gene under the control of a 3.4-kilobase fragment of the SMN2 promoter. D156844 was used as a positive control for this assay.
# rats = test: Pilocarpine-induced Status Epilepticus in Rats (prevention; intervention @ 30 min); conditions: for Prevention, Protection: rats, pilocarpine-induced status epilepticus
# Protocol: The animal testing was performed using the protocols developed in the Anticonvulsant Screening Program (ASP) at the National Institute of Neurological Disorders and Stroke (NINDS), National Institutes of Health (NIH).
# [4] = Rattus norvegicus, read-out: Prevention, Protection
# [5] = Rattus norvegicus, 0.5 h, read-out: Intervention @ 30 min, Protection
smiles,measurement,setting,value
"CC(C)C[C@H](NC(=O)[C@@H]1C[C@H]1c1ccccc1)C(N)=O (mixture of isomers) [Compound Q, trans-2-Phenylcyclopropane-carboxylic acid-((S)-1-carbamoyl-3-methylbutyl)amide]",activity in the 6 Hz (minimal clonic seizure) model,mice [1]; at 300 mg/kg,activity
"CC[C@H](NC(=O)[C@@H]1C[C@H]1c1ccccc1)C(N)=O (mixture of isomers) [Compound Q-1, trans-2-Phenylcyclopropane-carboxylic acid-((S)-1-carbamoyl-propyl)amide]","6 Hz (32 mA), fraction of animals",mice [1]; 50 mg/kg @ 0.25 hr,1/4 @0.25
same,"6 Hz (32 mA), fraction of animals",mice [1]; 100 mg/kg @ 0.25 hr,4/4
same,"6 Hz (32 mA), fraction of animals",mice [1]; 100 mg/kg @ 0.5 hr,3/4
same,"6 Hz (32 mA), fraction of animals",mice [1]; 100 mg/kg @ 1.0 hr,4/4
same,"6 Hz (32 mA), fraction of animals",mice [1]; 100 mg/kg @ 2.0 hr,1/4
same,activity in the 6 Hz (minimal clonic seizure) model,mice [1]; at 100 mg/kg,activity
same,activity in the s.c. MET test,mice [2],activity
same,"MES, fraction of animals",mice [3]; 100 mg/kg @ 0.5 hr,2/3
same,"MES, fraction of animals",mice [3]; 100 mg/kg @ 4.0 hr,1/3
same,activity in the MES test,mice [3]; at 300 mg/kg,activity
CCOc1ccc(C(C)CC(N)=O)cc1 (racemic) [CA],activity in the 6 Hz (minimal clonic seizure) model,mice [1]; at 100 mg/kg,activity
same,"Promoter (SMN2 promoter test, summary YES/NO)",SMN2 promoter,YES
same,SMN2 promoter activity,SMN2 promoter,increased SMN2 promoter activity
same,"Prevention, Protection",rats; dose 600 mg/kg,100%
CC(C)Oc1ccc(C(C)CC(N)=O)cc1 (racemic) [CB],"MES, fraction of animals",mice [3]; 100 mg/kg @ 0.25 hr,3/3
same,"MES, fraction of animals",mice [3]; 100 mg/kg @ 1.0 hr,1/3
same,"Prevention, Protection",rats; dose 200 mg/kg,100%
Cc1ccc(C(C)CC(N)=O)cn1 (racemic) [CH],"6 Hz (32 mA), fraction of animals",mice [1]; 50 mg/kg @ 0.25 hr,"1/4, 1/4"
same,"6 Hz (32 mA), fraction of animals",mice [1]; 50 mg/kg @ 0.5 hr,"1/4, 1/4"
COc1ccc(C(C)CC(N)=O)cn1 (racemic) [CI],"6 Hz (32 mA), fraction of animals",mice [1]; 100 mg/kg @ 0.25 hr,1/4 @ 0.25 hr
Cc1nccnc1C(C)CC(N)=O (racemic) [CZ],"6 Hz (32 mA), fraction of animals",mice [1]; 100 mg/kg @ 0.25 hr,1/4 @
same,"6 Hz (32 mA), fraction of animals",mice [1]; 100 mg/kg @ 0.5 hr,1/4 @
same,"6 Hz (32 mA), fraction of animals",mice [1]; 100 mg/kg @ 2.0 hr,hrs and 2/4
CCc1nccnc1C(C)CC(N)=O (racemic) [DB],"6 Hz (32 mA), fraction of animals",mice [1]; 100 mg/kg @ 4.0 hr,1/4 @ 4.0 hrs.
same,SMN2 promoter activity,SMN2 promoter,increased SMN2 promoter activity
CC(CC(N)=O)c1cnccn1 (racemic) [DC],"Promoter (SMN2 promoter test, summary YES/NO)",SMN2 promoter,YES
same,SMN2 promoter activity,SMN2 promoter,increased SMN2 promoter activity
Cc1cnc(C(C)CC(N)=O)c(C)n1 (racemic) [DD],"6 Hz (32 mA), fraction of animals",mice [1]; 100 mg/kg @ 0.5 hr,"1/4 @ 0.5 hr,"
same,"Promoter (SMN2 promoter test, summary YES/NO)",SMN2 promoter,YES
same,SMN2 promoter activity,SMN2 promoter,increased SMN2 promoter activity
Cc1nc2ccccc2nc1C(C)CC(N)=O (racemic) [DE],"6 Hz (32 mA), fraction of animals",mice [1]; 100 mg/kg @ 0.25 hr,1/4 @
same,"6 Hz (32 mA), fraction of animals",mice [1]; 100 mg/kg @ 0.5 hr,1/4 @
Cc1ccc(C(C)CC(N)=O)c(C)n1 (racemic) [DF],"6 Hz (32 mA), fraction of animals",mice [1]; 100 mg/kg @ 2.0 hr,1/4 @ 2.0
same,"6 Hz (32 mA), fraction of animals",mice [1]; 100 mg/kg @ 4.0 hr,1/4 @ 2.0
"CCC(CC(N)=O)c1ccc(OC)cc1 (stereo not shown) [AB, 3-(4-Methoxy-phenyl)-pentanoicacid amide]",responders at 450 mg/kg,rats; [4],100%
NC(=O)CC1(c2ccc(Cl)cc2)CCCCC1 [AK],"6 Hz (32 mA), fraction of animals",mice [1]; 100 mg/kg @ 0.25 hr,4/4
same,"6 Hz (32 mA), fraction of animals",mice [1]; 100 mg/kg @ 0.5 hr,3/4
same,"6 Hz (32 mA), fraction of animals",mice [1]; 100 mg/kg @ 1.0 hr,1/4 @
same,"MES, fraction of animals",mice [3]; 100 mg/kg @ 0.25 hr,3/4
same,"MES, fraction of animals",mice [3]; 100 mg/kg @ 2.0 hr,1/4
"NC(=O)CC(c1ccc2c(c1)OCCO2)C1CC1 (stereo not shown) [AP, 3-Cyclopropyl-3-(2,3dihydro-benzo[1,4]dioxin-6-yl)propionamide]",activity in the s.c. MET test,mice [2],activity
same,activity in the MES test,mice [3]; at 300 mg/kg,activity
same,responders at 600 mg/kg,rats; [5],75%
same,responders at 450 mg/kg,rats; [4],75%
"CC(C)C(CC(N)=O)c1ccc(Cl)cc1 (stereo not shown) [AR, 3-(4-Chloro-phenyl)-4-methyl-pentanoic-acid-amide]","6 Hz (32 mA), fraction of animals",mice [1]; 100 mg/kg @ 0.25 hr,3/4
same,"6 Hz (32 mA), fraction of animals",mice [1]; 100 mg/kg @ 0.5 hr,2/4
same,activity in the s.c. MET test,mice [2],activity
same,"SMN2 promoter assay, evidence of activity (may warrant further study)",SMN2 promoter; NSC34 BLA reporter cells,show evidence of activity
same,activity in the MES test,mice [3]; at 300 mg/kg,activity
COc1ccc(C2(CC(N)=O)CCCC2)cc1 [AZ],SMN2 promoter activity,SMN2 promoter,increased SMN2 promoter activity
"NC(=O)C1CC1(c1ccccc1)c1ccccc1 (stereo not shown) [BB, 2,2-Diphenyl-cyclopropanecarboxylicacid amide]",activity in the 6 Hz (minimal clonic seizure) model,mice [1]; at 100 mg/kg,activity
same,SMN2 promoter activity,SMN2 promoter,increased SMN2 promoter activity
"CNC(=O)CC(C)c1ccc(OC(F)(F)F)cc1 (stereo not shown) [BC, N-Methyl-3-(4-trifluoromethoxyphenyl)-butyramide]",activity in the s.c. MET test,mice [2],activity
"CCNC(=O)CC(C)c1ccc(OC(F)(F)F)cc1 (stereo not shown) [BF, N-Ethyl-3-(4-trifluoromethoxy-phenyl)-butyramide]","6 Hz (32 mA), fraction of animals",mice [1]; 100 mg/kg @ 0.25 hr,3/4
same,"6 Hz (32 mA), fraction of animals",mice [1]; 100 mg/kg @ 0.5 hr,4/4
same,"6 Hz (32 mA), fraction of animals",mice [1]; 100 mg/kg @ 1.0 hr,2/4
same,"6 Hz (32 mA), fraction of animals",mice [1]; 100 mg/kg @ 2.0 hr,3/4
same,activity in the s.c. MET test,mice [2],activity
same,activity in the MES test,mice [3]; at 300 mg/kg,activity
same,responders at 200 mg/kg,rats; [4],88%
"CC(CC(=O)N1CCOCC1)c1ccc(OC(F)(F)F)cc1 (stereo not shown) [BI, 1-Morpholin-4-yl-3-(4-trifluoromethoxy-phenyl)-butan-1-one]","6 Hz (32 mA), fraction of animals",mice [1]; 50 mg/kg @ 0.25 hr,2/4
same,"6 Hz (32 mA), fraction of animals",mice [1]; 50 mg/kg @ 0.5 hr,1/4
same,activity in the s.c. MET test,mice [2],activity
"CC(CC(=O)N1CCC(C(N)=O)CC1)c1ccc(OC(F)(F)F)cc1 (stereo not shown) [BN, 1-[3-(4-Trifluoromethoxy-phenyl)-butyryl]-piperidine-4carboxylic acidamide]","SMN2 promoter assay, evidence of activity (may warrant further study)",SMN2 promoter; NSC34 BLA reporter cells,show evidence of activity
same,activity in the MES test,mice [3]; at 300 mg/kg,activity
"CC(C)C[C@@H](NC(=O)CC(C)c1ccc(OC(F)(F)F)cc1)C(N)=O (stereo partly drawn) [BP, (R)-4-Methyl-2-[3-(4-trifluoromethoxy-phenyl)-butyrylamino]-pentanoic acid amide]","6 Hz (32 mA), fraction of animals",mice [1]; 100 mg/kg @ 0.25 hr,1/4 @ 0.25
"CC[C@H](NC(=O)CC(C)c1ccc(OC(F)(F)F)cc1)C(N)=O (stereo partly drawn) [BR, N-((S)-1-Carbamoyl-propyl)-3-(4-trifluoromethoxy-phenyl)-butyramide]","6 Hz (32 mA), fraction of animals",mice [1]; 100 mg/kg @ 0.5 hr,1/4 @ 0.5
same,activity in the MES test,mice [3]; at 100 mg/kg,activity
"CC(CC(=O)N[C@@H](C)C(N)=O)c1ccc(OC(F)(F)F)cc1 (stereo partly drawn) [BS, N-((S)-1-Carbamoyl-ethyl)-3-(4-trifluoromethoxy-phenyl)-butyramide]","6 Hz (32 mA), fraction of animals",mice [1]; 100 mg/kg @ 1.0 hr,1/4 @ 1.0
same,activity in the MES test,mice [3]; at 300 mg/kg,activity
"CC(CC(N)=O)c1ccc(Cl)c(Cl)c1 (stereo not shown) [BW, 3-[3,4-dichloro-phenyl]butyramide]","s.c. MET, fraction of animals",mice [2]; 30 mg/kg @ 4.0 hr,1/1 @ 4.0
same,"s.c. MET, fraction of animals",mice [2]; 100 mg/kg @ 4.0 hr,1/1 @ 4.0
same,"MES, fraction of animals",mice [3]; 100 mg/kg @ 0.5 hr,1/3 @
"CC(C)c1ccc(C(C)CC(N)=O)cc1 (stereo not shown) [Compound AW, 3-(4-Isopropylphenyl)butyramide]","6 Hz (32 mA), fraction of animals",mice [1]; 200 mg/kg @ 0.25 hr,"4/4, 4/4 @"
same,"6 Hz (32 mA), fraction of animals",mice [1]; 200 mg/kg @ 0.5 hr,"4/4, 4/4 @"
same,activity in the 6 Hz (minimal clonic seizure) model,mice [1]; at 200 mg/kg,activity
same,SMN2 promoter activity,SMN2 promoter,increased SMN2 promoter activity
same,activity in the MES test,mice [3]; at 300 mg/kg,activity
same,responders at 200 mg/kg,rats; [5],25%
same,responders at 450 mg/kg,rats; [4],75%
"CC(O)(CC(N)=O)c1ccc(OC(F)(F)F)cc1 (stereo not shown) [Compound CC, 3-hydroxy-3-(4(trifluoromethoxy)-phenyl)butanamide]","MES, fraction of animals",mice [3]; 100 mg/kg @ 0.5 hr,3/3
same,"MES, fraction of animals",mice [3]; 100 mg/kg @ 4.0 hr,2/3
same,responders at 200 mg/kg,rats; [4],100%
"CC(CC(N)=O)c1cccc(F)c1 (stereo not shown) [Compound D, 3-(3-Fluorophenyl)butyramide]",activity in the s.c. MET test,mice [2],activity
same,activity in the MES test,mice [3]; at 300 mg/kg,activity
same,responders at 400 mg/kg,rats; [5],75%
same,responders at 200 mg/kg,rats; [4],100%
"CC(CC(N)=O)Oc1ccc(C#N)cc1 (stereo not shown) [Compound O, 3-(4-Cyanophenoxy)butyramide]",responders at 450 mg/kg,rats; [4],50%
"COc1ccc(C(C)CC(N)=O)cc1Cl (stereo not shown) [J, 3-(3-chloro-4-methoxy-phenyl)butyramide]",activity in the s.c. MET test,mice [2],activity
same,responders at 600 mg/kg,rats; [5],38%
same,responders at 600 mg/kg,rats; [4],75%
"CC(CC(N)=O)c1ccc2c(c1)OCCO2 (stereo not shown) [K, 3-(3,4-ethylenedioxy-phenyl)butyramide]","SMN2 promoter assay, particularly strong hits",SMN2 promoter; NSC34 BLA reporter cells,particularly strong hits
same,"Promoter (SMN2 promoter test, summary YES/NO)",SMN2 promoter,YES
same,SMN2 promoter activity,SMN2 promoter,increased SMN2 promoter activity
same,responders at 600 mg/kg,rats; [5],38%
same,responders at 300 mg/kg,rats; [4],50%
